Data set [1] in a line: Solubility (Test F), McIlvaine buffer pH 6.5. It is filed as physicochemical. To be noted: McIlvaine buffer pH 6.5, 25° C., 24 to 72 h, theoretical maximum 200 μM; for solubility: disodium hydrogenphosphate-citric acid (McIlvaine) buffer, 25 °C, pH 6.5, aqueous buffer, thermodynamic from solid.
The next data set addresses Human NLRP3 (Homo sapiens (Human), UniProt Q96P20). As to conditions: Test C IC50, IL-1β release, THP-1 cells, LPS 2 μg/mL 24 h, BzATP 1 mM.

In brackets after ≈: the same amount, converted by molar mass.

This note sets out measurements from patent US11970463B2, “Compounds and their use” (ASTRAZENECA AB, priority 2021, dated 2024).

Human NLRP3, sequence (Q96P20 whole entry): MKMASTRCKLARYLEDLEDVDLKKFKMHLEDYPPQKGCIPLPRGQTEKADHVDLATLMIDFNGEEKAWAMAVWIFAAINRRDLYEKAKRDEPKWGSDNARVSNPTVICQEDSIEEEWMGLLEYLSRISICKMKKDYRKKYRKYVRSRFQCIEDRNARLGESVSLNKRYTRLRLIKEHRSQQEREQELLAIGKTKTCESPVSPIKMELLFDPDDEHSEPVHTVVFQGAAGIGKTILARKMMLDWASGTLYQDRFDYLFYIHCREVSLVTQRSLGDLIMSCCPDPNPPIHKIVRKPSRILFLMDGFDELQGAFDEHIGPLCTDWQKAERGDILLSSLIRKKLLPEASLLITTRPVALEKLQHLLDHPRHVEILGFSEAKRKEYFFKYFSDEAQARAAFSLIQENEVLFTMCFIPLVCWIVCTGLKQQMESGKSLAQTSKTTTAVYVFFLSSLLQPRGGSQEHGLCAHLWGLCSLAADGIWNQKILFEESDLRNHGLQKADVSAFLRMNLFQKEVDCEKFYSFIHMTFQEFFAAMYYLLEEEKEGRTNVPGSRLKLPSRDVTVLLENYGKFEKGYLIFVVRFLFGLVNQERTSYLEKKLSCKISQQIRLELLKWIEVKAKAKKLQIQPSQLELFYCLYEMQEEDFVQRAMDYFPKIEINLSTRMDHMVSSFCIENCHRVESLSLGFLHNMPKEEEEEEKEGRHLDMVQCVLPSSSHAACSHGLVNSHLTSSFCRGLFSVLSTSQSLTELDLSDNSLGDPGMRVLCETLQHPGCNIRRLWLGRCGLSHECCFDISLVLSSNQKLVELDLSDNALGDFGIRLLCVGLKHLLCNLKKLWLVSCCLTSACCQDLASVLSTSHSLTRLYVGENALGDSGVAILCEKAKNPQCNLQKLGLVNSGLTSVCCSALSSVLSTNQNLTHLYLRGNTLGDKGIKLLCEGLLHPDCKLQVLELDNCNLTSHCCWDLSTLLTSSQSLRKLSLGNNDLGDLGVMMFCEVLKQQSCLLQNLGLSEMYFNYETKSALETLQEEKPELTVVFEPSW

As to `Oc1cccc(C(F)(F)F)c1-c1nnc(N[C@@H]2CCC[C@H](O)C2)c2cnccc12` (racemic) [Example 50, 2-[4-[[(1R,3S)-3-hydroxycyclohexyl]amino]pyrido[3,4-d]pyridazin-1-yl]-3-(trifluoromethyl)phenol], the “Test F Solubility” value in data set [1] was over 80.9 µg/mL.

With `Oc1cc(C(F)(F)F)ccc1-c1nnc(N[C@H]2CCC[C@H](O)C2)c2ccccc12` (single isomer, unassigned) [Example 29], the “Test F Solubility” value in data set [1] amounted to 16.1 µg/mL.

Compound `Oc1cc(C(F)(F)F)ccc1-c1nnc(N[C@H]2CC[C@@H](O)C2)c2ccccc12` (single isomer, unassigned) [Example 34] returned a solubility in data set [1] of 9.3 µg/mL (≈ 23.9 µM). Besides, the midpoint of inhibition on Human NLRP3, the IC50, lay at 18 nM.

Turning to `Oc1cccc(C(F)(F)F)c1-c1nnc(N[C@@H]2CCC[C@H](O)C2)c2cnccc12` (single isomer, unassigned) [Example 49], the solubility in data set [1] was over 80.9 µg/mL. At Human NLRP3, this compound registered an IC50 of 405 nM.

At Human NLRP3, `Oc1cccc(C(F)(F)F)c1-c1nnc(N[C@@H]2CCC[C@H](O)C2)c2cnccc12` (single isomer, unassigned) [Example 50] returned an IC50 of 47 nM.

Regarding `OC[C@@H](O)CNc1nnc(-c2ccc(C(F)(F)F)cc2O)c2ccccc12` [Example 1, (2S)-3-[[4-[2-hydroxy-4-(trifluoromethyl)phenyl]phthalazin-1-yl]amino]propane-1,2-diol], the solubility in data set [1] came out at 50 µg/mL (≈ 132 µM).

Consider `OC[C@@H](O)CNc1nnc(-c2ccc(Cl)c(F)c2O)c2ccccc12` [Example 2, (2S)-3-[[4-(4-chloro-3-fluoro-2-hydroxy-phenyl)phthalazin-1-yl]amino]propane-1,2-diol], for which, in data set [1], the solubility came to 24.6 µg/mL (≈ 67.6 µM). The compound further yielded an IC50 against Human NLRP3 of 165 nM.

Regarding `OC[C@@H](O)CNc1nnc(-c2cc(F)c(F)cc2O)c2ccccc12` [Example 3, (2S)-3-[[4-(4,5-difluoro-2-hydroxy-phenyl)phthalazin-1-yl]amino]propane-1,2-diol], the solubility in data set [1] is 68.6 µg/mL (≈ 198 µM). Also, the IC50 on Human NLRP3 was found to be 474 nM.

`OC[C@@H](O)CNc1nnc(-c2c(O)cccc2F)c2ccccc12` [Example 4, (2S)-3-[[4-(2-fluoro-6-hydroxy-phenyl)phthalazin-1-yl]amino]propane-1,2-diol] gave a solubility in data set [1] of 23.2 µg/mL (≈ 70.4 µM). This compound returned an IC50 against Human NLRP3 of over 1000 nM.

Regarding `OC[C@@H](O)CNc1nnc(-c2c(O)cc(F)cc2F)c2ccccc12` [Example 8, (2S)-3-[[4-(2,4-difluoro-6-hydroxy-phenyl)phthalazin-1-yl]amino]propane-1,2-diol], the solubility in data set [1] is 11.8 µg/mL (≈ 34 µM). This compound displayed an IC50 against Human NLRP3 of 159 nM.

`OC[C@@H](O)CNc1nnc(-c2c(O)cccc2Cl)c2ccccc12` [Example 10, (2S)-3-[[4-(2-chloro-6-hydroxy-phenyl)phthalazin-1-yl]amino]propane-1,2-diol] showed a solubility in data set [1] of 62.9 µg/mL (≈ 182 µM). In addition, the IC50 at Human NLRP3 is 434 nM.

As to `OC[C@H](O)CNc1nnc(-c2ccc(C(F)(F)F)cc2O)c2ccccc12` [Example 12, (2R)-3-[[4-[2-hydroxy-4-(trifluoromethyl)phenyl]phthalazin-1-yl]amino]propane-1,2-diol], the solubility in data set [1] came out at 36.4 µg/mL (≈ 96 µM).

Regarding `Oc1cc(C(F)(F)F)ccc1-c1nnc(N[C@@H]2CCC[C@H](O)C2)c2ccncc12` [Example 43, 2-[1-[[(1R,3S)-3-hydroxycyclohexyl]amino]pyrido[3,4-d]pyridazin-4-yl]-5-(trifluoromethyl)phenol], the solubility in data set [1] is 37.3 µg/mL (≈ 92.2 µM).

`OC[C@@H](O)CNc1nnc(-c2ccc(C(F)(F)F)cc2O)c2ccncc12` [Example 88, (2S)-3-[[1-[2-hydroxy-4-(trifluoromethyl)phenyl]pyrido[3,4-d]pyridazin-4-yl]amino]propane-1,2-diol] returned a solubility in data set [1] of over 76.1 µg/mL.

Take `Oc1cc(C(F)(F)F)ccc1-c1nnc(N[C@@H]2CCC[C@H](O)C2)c2ncccc12` [Example 89, 2-[8-[[(1R,3S)-3-hydroxycyclohexyl]amino]pyrido[2,3-d]pyridazin-5-yl]-5-(trifluoromethyl)phenol]: the solubility in data set [1] stood at 22.1 µg/mL (≈ 54.6 µM).

One may read the solubility as how much of the substance goes into solution per volume. Higher therefore signals much dissolved substance. The term IC50 denotes the point on the concentration scale where inhibition reaches its midpoint.
